Results on 13 compounds are retold here after patent US20220281866A1, “5,8-DISUBSTITUTED-[1,2,4]TRIAZOLO[1,5-A]PYRIDINYL AND 5,8-DISUBSTITUTED-IMIDAZO[1,2-A]PYRIDINE DERIVATIVES USEFUL AS INHIBITORS OF ENTEROPEPTIDASE” (Janssen Pharmaceutica NV, priority 2019, published 2022).

Experiment [1] concerns the target T1, Recombinant full-length human EP (Enteropeptidase) (Homo sapiens, UniProt P98073).
T1 construct: Recombinant full-length human EP (PeproTech, Cat #450-48C); purchased PeproTech 450-48C
Briefly: In vitro inhibition potencies against Enteropeptidase (EP), fluorescent peptide GDDDDK-naphthylamine substrate. To be noted: 300 μM substrate, 1.25 nM EP; for kinact/KI: 12-point dose-dependence, time-dependent inhibition, duplicate dilutions, read-out: kinact/KI^App; for inhibition at 0.1 µM: compound 0.1 μM; for inhibition at 1 µM: compound 1 μM; for inhibition at 10 µM: compound 10 μM. The format is biochemical. On the procedure: In vitro inhibition potencies against Enteropeptidase (EP) Recombinant full-length human EP (PeproTech, Cat #450-48C) was used in this biochemical assay, with a quenched fluorescent labeled peptide GDDDDK-naphthylamine (NA) (Sigma, Cat #G5261) as the substrate in a buffer of 50 mM Tris-HCl pH 7.4, 200 mM NaCl and 0.01% Triton X-100. The enzyme activity was measured by following the formation of the cleavage product […](NA) by monitoring the fluorescence intensity (FI) at excitation/emission wavelengths of 340/410 nm. The steady-state kinetic characterization studies yielded an average of KM to be 412±22 μM and the apparent turnover number kcat^app of 11.8±0.4 s^−1 (N=2).
Compound inhibition studies were carried out under the conditions of 300 μM substrate and 1.25 nM EP. Reaction progress curves were collected by reading the FI at 340/410 nm continuously for 1 hour at an interval of 1 minute.
To screen compounds of formula (I), inhibition was studied at 4 different compound concentrations of 10 μM, 1 μM, 0.1 μM and 0.01 μM. Initial velocity of the reaction was determined, and percent of inhibition was calculated by comparing to the reaction in the absence of compound.
Accurate measurements of the inhibition potencies of selected compounds were studied in a 12-point dose-dependence fashion. […] Compound potency was measured by determining the inactivation rate constant (kobs) following the reaction change from the initial velocity vi to the steady-state velocity vs at various compound concentrations. The inactivation rate constants (kobs), were derived by fitting the reaction progress curves to eq. 1.
where YT is the detection signal of the reaction at time t, vi and vs are the initial and the steady-state velocities of the reaction, t is the reaction time. Y0 is the background signal (when t=0).
Compound binding mechanism was shown by plotting kobs˜[compound]. Hyperbolic fitting to eq. 2
conforms to a two-step binding mechanism as shown in Scheme BIO-1.
The plateau of the curve is the forward step rate constant of the isomerization step k3, KI^app is the inhibitor concentration that leads to half-maximal rate of inhibition of enzyme under the assay conditions. Compound inhibition potency was reported by the value of k3/KI^app.
A linear dependence of eq.3
indicates a one-step binding mechanism as shown in Scheme BIO-2
Slope of the linear fit gives the second-order rate constant of the compound binding k1, which is used to represent the compound inhibition potency.
(§1) Representative compounds of the present invention were tested according to the procedures as described in Biological Example 1 and Biological Example 2 above, with results as listed in Table 2 and Table 3, below. Results are reported as the %-inhibition (% Inh) or Kinact/KI value. Variability for the functional assay was typically within 20%. For the column headed Kinact/KI the listed measurement is the result of duplicate dilutions.

The next experiment addresses T2, Bovine trypsin (Bos taurus, UniProt P00760).
T2 construct: purchased Sigma-Aldrich T1426
T2 sequence (P00760 24-246): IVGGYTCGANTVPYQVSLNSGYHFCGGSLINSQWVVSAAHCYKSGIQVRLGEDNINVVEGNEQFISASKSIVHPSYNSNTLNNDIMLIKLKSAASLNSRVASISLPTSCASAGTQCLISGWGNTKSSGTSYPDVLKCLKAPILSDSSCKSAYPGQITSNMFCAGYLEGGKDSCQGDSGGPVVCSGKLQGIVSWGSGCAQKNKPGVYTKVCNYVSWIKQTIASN
Briefly: Biochemical Assay of Trypsin (T), H-D-CHA-AR-AMC substrate. To be noted: 15 μM substrate, 0.025 nM Trypsin; for kinact/KI: 12-point dose-dependence, time-dependent inhibition, duplicate dilutions, read-out: Kinact/KI^App; for inhibition at 0.1 µM: compound 0.1 μM; for inhibition at 1 µM: compound 1 μM; for inhibition at 10 µM: compound 10 μM. On the procedure: Bovine trypsin was purchased from Sigma-Aldrich (Cat No. T1426), and 7-amino-4-methylcoumarin (AMC) conjugated peptide H-D-cyclohexylalanine (D-CHA)-AR-AMC was used as the substrate in the assay. The protease activity of trypsin was followed by measuring AMC production by the emission fluorescence intensity of AMC at 460 nm with the excitation at 375 nm, in the same assay buffer as used in the EP assay. The enzyme kinetic characterization studies yielded an average of KM to be 3.9±0.5 μM and the apparent turnover number kcat^app of 33.8±0.4 s^−1 (N=2).
Studies of compound inhibition against T were carried out under the conditions of 15 μM substrate and 0.025 nM Trypsin. Reaction progress curves were collected by reading the FI at 375/460 nm continuously for 1 hour at an interval of 1 minute. Similar to the procedure for Enteropeptidase described above, compounds of formula (I) were screened against Trypsin at 4 different concentrations to obtain the percent of inhibition at 10 μM, 1 μM, 0.1 μM and 0.01 μM, and accurate potencies of selected compounds against Trypsin were derived from detailed 12-point dose-dependence studies for time-dependent inhibitors.
as §1

T1 sequence (P98073 whole entry): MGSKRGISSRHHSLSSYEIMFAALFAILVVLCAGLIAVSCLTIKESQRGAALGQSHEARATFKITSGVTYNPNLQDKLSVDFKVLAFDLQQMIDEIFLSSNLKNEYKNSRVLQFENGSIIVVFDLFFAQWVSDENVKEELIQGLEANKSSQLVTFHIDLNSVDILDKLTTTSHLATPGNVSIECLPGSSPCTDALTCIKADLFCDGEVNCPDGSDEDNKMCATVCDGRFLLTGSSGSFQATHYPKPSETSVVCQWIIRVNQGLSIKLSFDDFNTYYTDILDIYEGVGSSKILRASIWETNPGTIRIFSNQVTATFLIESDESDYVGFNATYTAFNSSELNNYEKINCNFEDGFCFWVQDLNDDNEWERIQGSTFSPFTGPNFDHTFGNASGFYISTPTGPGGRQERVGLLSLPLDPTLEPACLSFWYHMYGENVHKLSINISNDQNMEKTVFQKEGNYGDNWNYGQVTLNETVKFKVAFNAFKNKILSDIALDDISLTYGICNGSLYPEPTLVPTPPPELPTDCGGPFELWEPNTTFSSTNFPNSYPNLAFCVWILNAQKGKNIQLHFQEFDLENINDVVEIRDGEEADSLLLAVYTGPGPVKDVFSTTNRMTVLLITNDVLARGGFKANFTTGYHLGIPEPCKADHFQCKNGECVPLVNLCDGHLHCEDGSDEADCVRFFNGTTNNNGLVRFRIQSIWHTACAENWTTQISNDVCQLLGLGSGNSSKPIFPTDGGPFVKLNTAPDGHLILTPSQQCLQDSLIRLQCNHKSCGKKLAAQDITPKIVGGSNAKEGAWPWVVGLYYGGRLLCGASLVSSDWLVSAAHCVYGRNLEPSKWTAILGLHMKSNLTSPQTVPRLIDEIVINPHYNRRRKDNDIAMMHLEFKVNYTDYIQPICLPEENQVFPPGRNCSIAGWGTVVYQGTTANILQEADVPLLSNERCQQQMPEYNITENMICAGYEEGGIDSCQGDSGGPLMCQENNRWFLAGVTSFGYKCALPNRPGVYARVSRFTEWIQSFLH

In the case of `N=C(N)Nc1ccc(C(=O)Oc2ccc(CC(=O)O)n3ncnc23)cc1F` [Compound 14, 2-(8-(3-fluoro-4-guanidinobenzoyloxy)-[1,2,4]triazolo[1,5-a]pyridin-5-yl)acetic acid], in experiment [1], the kinact/KI is 72800 M⁻¹ s⁻¹, the inhibition at 0.1 µM came out at 96.8%, the inhibition at 1 µM turned out to be 100% and the inhibition at 10 µM is 100%. In addition, on Bovine trypsin, the kinact/KI worked out at 69700 M⁻¹ s⁻¹, the inhibition at 0.1 µM amounted to 87.6%, the inhibition at 1 µM was determined as 100% and the inhibition at 10 µM worked out at 100%.

On to `CONC(=N)c1ccc(C(=O)Oc2ccc(CC(=O)O)n3ncnc23)cc1` [Compound 36, 2-(8-(4-(N-methoxycarbamimidoyl)benzoyloxy)-[1,2,4]triazolo[1,5-a]pyridin-5-yl)acetic acid], for which, in experiment [1], the inhibition at 0.1 µM amounted to 2.4%, the inhibition at 1 µM was 9.1% and the inhibition at 10 µM was found to be 34%. Besides, at Bovine trypsin, the inhibition at 0.1 µM was -3.1%, the inhibition at 1 µM is -3.3% and the inhibition at 10 µM came to 18.2%.

As to `CS(=O)(=O)NC(=O)Cc1ccc(OC(=O)c2cnc(NC(=N)N)nc2)c2ncnn12` [Compound 30, 5-(2-(methylsulfonamido)-2-oxoethyl)-[1,2,4]triazolo[1,5-a]pyridin-8-yl 2-guanidinopyrimidine-5-carboxylate], in experiment [1], the inhibition at 0.1 µM was determined as 92.1%, the inhibition at 1 µM amounted to 99.5% and the inhibition at 10 µM amounted to 100%. On Bovine trypsin, the inhibition at 0.1 µM was found to be 96.5%, the inhibition at 1 µM was 100% and the inhibition at 10 µM stood at 100%.

For `N#Cc1cc(C(=O)Oc2ccc(CC(=O)O)n3ncnc23)ccc1NC(=N)N` [Compound 22, 2-(8-(3-cyano-4-guanidinobenzoyloxy)-[1,2,4]triazolo[1,5-a]pyridin-5-yl)acetic acid], in experiment [1], the inhibition at 0.1 µM is -3%, the inhibition at 1 µM was -6.3% and the inhibition at 10 µM turned out to be 32.1%. At Bovine trypsin, the inhibition at 0.1 µM was determined as 0.9%, the inhibition at 1 µM came to 12.3% and the inhibition at 10 µM came to 29.9%.

Turning to `Cc1cc(NC(=N)N)ccc1C(=O)Oc1ccc(CC(=O)O)n2ncnc12` [Compound 19, 2-(8-(4-guanidino-2-methylbenzoyloxy)-[1,2,4]triazolo[1,5-a]pyridin-5-yl)acetic acid], in experiment [1], the inhibition at 0.1 µM was found to be 10.3%, the inhibition at 1 µM amounted to 59.9% and the inhibition at 10 µM amounted to 101%. Besides, at Bovine trypsin, the inhibition at 0.1 µM came to 9.5%, the inhibition at 1 µM was determined as 48.9% and the inhibition at 10 µM was determined as 99.7%.

Consider `N=C(N)Nc1ncc(C(=O)Oc2ccc(CC(=O)NC(CC(=O)O)C(=O)O)n3ncnc23)cn1` (stereo not shown) [Compound 28, 2-(2-(8-(2-guanidinopyrimidine-5-carbonyloxy)-[1,2,4]triazolo[1,5-a]pyridin-5-yl)acetamido)succinic acid], for which, in experiment [1], the inhibition at 0.1 µM amounted to 88.6%, the inhibition at 1 µM was 98.5% and the inhibition at 10 µM was 99.9%. For the same compound, at Bovine trypsin, the inhibition at 0.1 µM is 97.8%, the inhibition at 1 µM was determined as 99.9% and the inhibition at 10 µM was found to be 100%.

`N=C(N)Nc1ccc(C(=O)Oc2cc(CC(=O)O)cn3ncnc23)cc1` [Compound 26, 2-(8-(4-guanidinobenzoyloxy)-[1,2,4]triazolo[1,5-a]pyridin-6-yl)acetic acid]: in experiment [1], the inhibition at 0.1 µM is 13.2%, the inhibition at 1 µM turned out to be 58.8% and the inhibition at 10 µM amounted to 101%. In addition, on Bovine trypsin, the inhibition at 0.1 µM came out at 81.7%, the inhibition at 1 µM stood at 100% and the inhibition at 10 µM is 100%.

Turning to `N=C(N)Nc1ccc(C(=O)Oc2ccc(Cc3nn[nH]n3)n3ncnc23)cc1` [Compound 11, 5-((2H-tetrazol-5-yl)methyl)-[1,2,4]triazolo[1,5-a]pyridin-8-yl 4-guanidinobenzoate], in experiment [1], the inhibition at 0.1 µM was 89.7%, the inhibition at 1 µM was determined as 101% and the inhibition at 10 µM came to 100%. Further, on Bovine trypsin, the inhibition at 0.1 µM was 99.3%, the inhibition at 1 µM worked out at 100% and the inhibition at 10 µM amounted to 100%.

On to `N=C(N)Nc1ccc(C(=O)Oc2ccc(CC(=O)NCC(=O)O)n3ncnc23)cc1` [Compound 4, 2-(2-(8-(4-guanidinobenzoyloxy)-[1,2,4]triazolo[1,5-a]pyridin-5-yl)acetamido)acetic acid], for which, in experiment [1], the inhibition at 0.1 µM turned out to be 48.1%, the inhibition at 1 µM amounted to 101% and the inhibition at 10 µM is 100%. For the same compound, on Bovine trypsin, the inhibition at 0.1 µM amounted to 99.7%, the inhibition at 1 µM was 100% and the inhibition at 10 µM was 100%.

`N=C(N)Nc1ccc(C(=O)Oc2ccc(CC(=O)O)n3ncnc23)cc1` [Compound 1, 2-{8-[(4-carbamimidamidophenyl)carbonyloxy]-[1,2,4]triazolo[1,5-a]pyridin-5-yl}acetic acid]: in experiment [1], the kinact/KI stood at 130000 M⁻¹ s⁻¹, the inhibition at 0.1 µM worked out at 97.8%, the inhibition at 1 µM was determined as 100% and the inhibition at 10 µM is 100%. At Bovine trypsin, the kinact/KI was 159000 M⁻¹ s⁻¹, the inhibition at 0.1 µM is 97.2%, the inhibition at 1 µM turned out to be 100% and the inhibition at 10 µM is 100%.

Consider `N=C(N)Nc1ccc(C(=O)Oc2ccc(CC(=O)O)n3ncnc23)cc1I` [Compound 13, 2-(8-(4-guanidino-3-iodobenzoyloxy)-[1,2,4]triazolo[1,5-a]pyridin-5-yl)acetic acid], for which, in experiment [1], the inhibition at 0.1 µM is -1.5%, the inhibition at 1 µM turned out to be 15.8% and the inhibition at 10 µM came out at 65%. Further, at Bovine trypsin, the inhibition at 0.1 µM came to 0.9%, the inhibition at 1 µM is 7.6% and the inhibition at 10 µM was determined as 45%.

As to `N=C(N)Nc1ccc(C(=O)Oc2ccc(CC(=O)O)n3ncnc23)cc1Cl` [Compound 16, 2-(8-(3-chloro-4-guanidinobenzoyloxy)-[1,2,4]triazolo[1,5-a]pyridin-5-yl)acetic], in experiment [1], the inhibition at 0.1 µM was 18.7%, the inhibition at 1 µM is 84.4% and the inhibition at 10 µM was found to be 101%. In addition, on Bovine trypsin, the inhibition at 0.1 µM worked out at 6.3%, the inhibition at 1 µM was found to be 56.6% and the inhibition at 10 µM amounted to 99.8%.

As to `N=C(N)Nc1ncc(C(=O)Oc2ccc(CC(=O)O)n3ccnc23)cn1` [Compound 29, 2-(8-(2-guanidinopyrimidine-5-carbonyloxy)imidazo[1,2-a]pyridin-5-yl)acetic acid], in experiment [1], the inhibition at 0.1 µM was 95.3%, the inhibition at 1 µM was 99.4% and the inhibition at 10 µM amounted to 100%. Also, at Bovine trypsin, the inhibition at 0.1 µM was 95.8%, the inhibition at 1 µM turned out to be 99.7% and the inhibition at 10 µM amounted to 100%.

The inhibition is the change of the read-out against control, counted positive when it falls.
